Literature values as cited in patent publication EP0396201A1 (priority 1989, dated 1990).

Test system: carbonic anhydrase
Details: carbonic anhydrase inhibitor, relative activity

times as active as p-aminobenzenesulfonamide: ~330
Compound: CC(=O)Nc1nnc(S(N)(=O)=O)s1 [Acetazolamide]
